The assay deals with Mitogen-activated protein kinase 14 (Homo sapiens, UniProt Q16539). Description: Inhibition of p38-alpha MAP kinase.

These results are taken from ChEMBL document CHEMBL1146251, “Synthesis and SAR of p38alpha MAP kinase inhibitors based on heterobicyclic scaffolds” (Bioorg Med Chem Lett, 2007).

The term IC50 denotes the concentration at which inhibition is half-maximal. Higher therefore signals weaker potency.

Mitogen-activated protein kinase 14, sequence (Q16539 whole entry): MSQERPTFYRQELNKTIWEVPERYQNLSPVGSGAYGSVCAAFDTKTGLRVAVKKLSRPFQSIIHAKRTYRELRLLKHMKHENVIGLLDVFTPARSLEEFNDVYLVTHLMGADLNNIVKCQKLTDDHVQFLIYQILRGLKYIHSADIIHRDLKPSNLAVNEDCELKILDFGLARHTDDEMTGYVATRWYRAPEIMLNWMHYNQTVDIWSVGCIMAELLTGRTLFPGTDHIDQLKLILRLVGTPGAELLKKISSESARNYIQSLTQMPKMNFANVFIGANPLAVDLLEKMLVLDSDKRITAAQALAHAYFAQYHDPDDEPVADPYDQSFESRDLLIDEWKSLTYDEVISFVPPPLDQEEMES

In turn, `COc1nc2[nH]cc(C(=O)C(=O)N(C)C)c2cc1C(=O)N1CCn2c(cnc2-c2ccc(F)cc2F)C1` registered an IC50 of 29 nM.
Under `O=C(c1c(F)cccc1F)N1CCn2c(cnc2-c2ccc(F)cc2F)C1` stands 167 nM; under `COc1nc2c(cc1C(=O)N1CCn3c(cnc3-c3ccc(F)cc3F)C1)c(C(=O)C(=O)N1CCC(O)C1)cn2C` (racemic), 16 nM; under `Cn1ccc2cc(C(=O)N3CCn4c(cnc4-c4ccc(F)cc4F)C3)c(Cl)cc21`, 50 nM.
Take `O=C(c1cccc2[nH]ccc12)N1CCc2c(cnn2-c2ccccc2Cl)C1`: the IC50 amounted to 37 nM.
Under `Cn1cc(C(=O)N2CCc3c(cnn3-c3ccccc3Cl)C2)c2ccccc21` stands 40 nM; under `O=C(c1cc2ccccc2[nH]1)N1CCc2c(cnn2-c2ccccc2Cl)C1`, 154 nM.
Under `Cn1ccc2cc(C(=O)N3CCc4c(cnn4-c4ccccc4Cl)C3)c(Cl)cc21` stands 26 nM; under `COc1nc2[nH]ccc2cc1C(=O)N1CCc2c(cnn2-c2ccccc2Cl)C1`, 137 nM.
The compound `COc1cc2c(cc1C(=O)N1CCn3c(cnc3-c3ccc(F)cc3F)C1)c(C(=O)C(=O)N(C)C)cn2C` showed a concentration for half-maximal inhibition (IC50) of 13 nM.
Under `COc1nc2[nH]ccc2cc1C(=O)N1CCn2c(cnc2-c2ccc(F)cc2F)C1` stands 164 nM.
Under `O=C(c1c(F)cccc1F)N1CCc2c(cnn2-c2ccccc2Cl)C1` stands 68 nM.
Next, `COc1nc2[nH]cc(C(=O)C(=O)N(C)C)c2cc1C(=O)N1CCc2c(cnn2-c2ccccc2Cl)C1`: 29 nM; `Cn1ccc2cc(C(=O)N3CCc4c(cnn4-c4ccccc4Cl)C3)ccc21`: 30 nM.
`CN(C)C(=O)C(=O)c1cn(C)c2cc(Cl)c(C(=O)N3CCn4c(cnc4-c4ccc(F)cc4F)C3)cc12` returned an IC50 of 14 nM.
`O=C(c1c(F)cccc1F)N1CCc2c(cnn2-c2ccc(F)cc2Cl)C1`: the half-inhibitory concentration (IC50) came out at 97 nM.
Next, `COc1cc2c(ccn2C)cc1C(=O)N1CCn2c(cnc2-c2ccc(F)cc2F)C1`: 38 nM; `O=C(c1c[nH]c2ccccc12)N1CCc2c(cnn2-c2ccccc2Cl)C1`: 55 nM.
Next, `O=C(c1c(Cl)cccc1Cl)N1CCc2c(cnn2-c2ccccc2Cl)C1`: 112 nM.
Next, `CC(C)n1ccc2cc(C(=O)N3CCc4c(cnn4-c4ccccc4Cl)C3)ccc21`: 39 nM; `CN(C)C(=O)C(=O)c1cn(C)c2cc(Cl)c(C(=O)N3CCc4c(ncnc4-c4ccc(F)cc4F)C3)cc12`: 195 nM.
`CN(C)C(=O)C(=O)c1cn(C)c2cc(Cl)c(C(=O)N3CCc4c(cnn4-c4ccccc4Cl)C3)cc12` displayed an IC50 of 33 nM.
Next, `CN(C)C(=O)C(=O)c1c[nH]c2ccc(C(=O)N3CCc4c(cnn4-c4ccccc4Cl)C3)cc12`: 37 nM.
Next, `O=C(c1ccc2cc[nH]c2c1)N1CCc2c(cnn2-c2ccccc2Cl)C1`: 40 nM; `CN(C)C(=O)C(=O)c1c[nH]c2cc(Cl)c(C(=O)N3CCn4c(cnc4-c4ccc(F)cc4F)C3)cc12`: 11 nM; `O=C(c1ccc(F)cc1F)N1CCn2c(cnc2-c2ccc(F)cc2F)C1`: 593 nM.
